Each structure is given as a SMILES string. Entries after “also recorded” stand apart in the source; their conditions may differ.

Results on 22 compounds are retold here after patent US20050181473A1, “Bacterial adpglucose pyrophospatase method for obtaining the latter and its use in the production of assay devices and in the obtention of transgenic plants and bacteria” (priority 2001, published 2005).

The target in the first assay is bacterial AGPPase (Escherichia coli, UniProt Q93K97, L2V/N6S). Format: biochemical.
Sequence of bacterial AGPPase (Q93K97 whole entry L2V/N6S, looked up): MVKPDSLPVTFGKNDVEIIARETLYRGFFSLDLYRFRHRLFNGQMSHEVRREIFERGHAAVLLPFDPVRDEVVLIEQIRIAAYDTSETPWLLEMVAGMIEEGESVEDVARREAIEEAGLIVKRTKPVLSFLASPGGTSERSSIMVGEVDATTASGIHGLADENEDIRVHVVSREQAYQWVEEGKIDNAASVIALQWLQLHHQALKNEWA
Conditions: not given
As to `O=C(O)[C@H](O)COP(=O)(O)O` [3-phosphoglycerate], the “inhibition of AGPPase” value is reported as “Inhibited”. On the same count and under the same terms, to `Nc1ncnc2c1ncn2[C@@H]1O[C@H](COP(=O)(O)OP(=O)(O)O)[C@@H](O)[C@H]1O` [ADP] belongs “Inhibited”; to `Nc1ncnc2c1ncn2[C@@H]1O[C@H](COP(=O)(O)O)[C@@H](O)[C@H]1O` [AMP], “Inhibited”; to `Nc1ncnc2c1ncn2[C@@H]1O[C@H](COP(=O)(O)OP(=O)(O)OP(=O)(O)O)[C@@H](O)[C@H]1O` [ATP], “Inhibited”. Regarding `O=C(O)CN(CCN(CC(=O)O)CC(=O)O)CC(=O)O` [EDTA], the “AGPPase activity affected by reducing and chelating agents” value was “adversely affected”. Same read-out and setting: to `N[C@@H](CCC(=O)O)C(=O)O` [glutamate] belongs “adversely affected”. In the case of `O=P(O)(O)OP(=O)(O)O` [inorganic pyrophosphate], the “inhibition of AGPPase” value is “Inhibited”. For `[Mg+2]` [magnesium], the “requirement for optimum functioning of AGPPase” value is “requires”. `[O]=[Mo](=[O])([O-])[O-]` [molybdate]: the “inhibition of AGPPase” value is reported as “strongly inhibited; also recorded: Inhibited strongly”. On the same count and under the same terms, the entry for `O=P(O)(O)O` [orthophosphate] is “not”. Consider `N[C@@H](CS)C(=O)O` [reduced cysteine], for which the “AGPPase activity affected by reducing and chelating agents” value is reported as “adversely affected”. For `N[C@@H](CCC(=O)N[C@@H](CS)C(=O)NCC(=O)O)C(=O)O` [reduced glutathione], the “AGPPase activity affected by reducing and chelating agents” value is listed as “adversely affected”.

Regarding `OCCS` [β-mercaptoethanol], the “AGPPase activity affected by reducing and chelating agents” value is “adversely affected”.

The same assay, now with this note: 37° C., Tris-HCl 50 mM pH 7.5, 5 mM MgCl2.
As to `Nc1ncnc2c1ncn2[C@@H]1O[C@@H]2COP(=O)(O)O[C@H]2[C@H]1O` [cyclic AMP], the “hydrolysis / recognition as substrate by AGPPase” value (“hydrolysis / recognition” for short) is reported as “Nor does it hydrolyze”.

The same assay, now with this note: pH 7.5.
For the compound `O=C(O)[C@H](O)COP(=O)(O)O` [3-phosphoglycerate], the “hydrolysis / recognition” value is recorded as “does not hydrolyze”. Regarding `Nc1ncnc2c1ncn2[C@@H]1O[C@H](COP(=O)(O)OP(=O)(O)O[C@H]2O[C@H](CO)[C@@H](O)[C@H](O)[C@H]2O)[C@@H](O)[C@H]1O` [ADPG, ADPglucose], the “hydrolysis / recognition” value is recorded as “catalyzes the hydrolysis”. The same measure, in the same setting: to `Nc1ncnc2c1ncn2[C@@H]1O[C@H](COP(=O)(O)OP(=O)(O)O[C@H]2O[C@H](CO)[C@@H](O)[C@H](O)[C@@H]2O)[C@@H](O)[C@H]1O` [ADPmannose] belongs “recognizes; also recorded: hydrolyzes”; to `Nc1ncnc2c1ncn2[C@@H]1O[C@H](COP(=O)(O)OP(=O)(O)OC[C@H]2OC(O)[C@H](O)[C@@H]2O)[C@@H](O)[C@H]1O` (stereo partly drawn) [ADPribose], “recognizes; also recorded: hydrolyzes”.

Consider `Nc1ncnc2c1ncn2[C@@H]1O[C@H](COP(=O)(O)O)[C@@H](O)[C@H]1O` [AMP], for which the “hydrolysis / recognition” value is recorded as “does not hydrolyze”.

As for `O=P(O)(O)O[C@H]1O[C@H](CO)[C@@H](O)[C@H](O)[C@H]1O` [G1P, glucose-1-phosphate], the “hydrolysis / recognition” value is recorded as “does not hydrolyze”.

With `O=C[C@H](O)[C@@H](O)[C@H](O)[C@H](O)COP(=O)(O)O` [G6P, glucose-6-phosphate], the “hydrolysis / recognition” value is “does not hydrolyze”. Still for that read-out and setting: the entry for `Nc1nc2c(ncn2[C@@H]2O[C@H](COP(=O)(O)OP(=O)(O)O[C@H]3O[C@H](CO)[C@@H](O)[C@H](O)[C@@H]3O)[C@@H](O)[C@H]2O)c(=O)[nH]1` [GDPmannose] is “does not recognize”. Still for that read-out and setting: the entry for `O=C(O)[C@H]1O[C@H](OP(=O)(O)OP(=O)(O)OC[C@H]2O[C@@H](n3ccc(=O)[nH]c3=O)[C@H](O)[C@@H]2O)[C@H](O)[C@@H](O)[C@@H]1O` [UDPglucuronic] is “does not recognize”. The same measure, in the same setting: the entry for `O=[N+]([O-])c1ccc(OP(=O)(O)Oc2ccc([N+](=O)[O-])cc2)cc1` [bis-paranitrophenyl-phosphate] is “does not hydrolyze”.
